Measured values from US20190282600A1, “COMBINATION THERAPIES TARGETING TERT DEPENDENCY FOR CANCER THERAPY” (The Wistar Institute of Anatomy and Biology, priority 2018, published 2019).

How the values were obtained:
[1] = system: NRAS mutant melanoma cells; assay: Global DNA damage, γH2AX staining by flow cytometry; type: cell-based, Human; settings: 1 μM 6-thio-dG for 7 days
Description: (§1) FIGS. 2a to 2c show NRAS^mut melanoma cells (FIG. 2a), BRAF-V600E/NRAS mutant cells derived from melanoma patients resistant to BRAF/MEK inhibitors (FIG. 2b), or non-transformed melanocytes and fibroblasts (FIG. 2c) were treated with 6-thio-dG for 7 days. Cell viability was measured by Alamar Blue assay and calculated relative to DMSO-treated cells. […] Cell death was assessed by PSVUe staining. Percent of apoptotic cells is shown. […] Mean TRF length expressed as kilobase pairs is indicated at the bottom. […] FIG. 2g provides a bar graph showing that DNA damage was assessed by γH2AX staining. Data represent average from three independent experiments ±SEM. *p<0.05; **p<0.01; ***p<0.005 in unpaired Student's t-test. As presented in FIG. 2h, mice bearing established WM3000 or M93-047 NRAS^mut tumors were treated with vehicle control or 6-thio-dG (2.5 mg/kg i.p; q.d). Tumor volume was measured and average tumor volume (n=4) ±SEM was plotted vs. time.
For assessment of global DNA damage cells were fixed and permeabilized with BD CytoFix/Perm reagent following the manufacturer's instructions and incubated with γH2AX antibody (Cell Signaling Technology, Danvers, Mass.) for 1 h at room temperature followed by 1 h incubation with Alexa-647 anti-Rabbit secondary antibody. Mean fluorescence staining was quantified by flow cytometry. […]

[2] = system: KRAS mutant HCT116 cells; assay: Cell death by Annexin V/PI flow cytometry; type: cell-based; settings: 1 μM 6-thio-dG, 5 μM Gam
Description: (§2) FIGS. 5a to 5e provide bar graphs showing that combination treatment with 6-Thio-dG and Gamitrinib (Gam) triggers death selectively in NRAS mutant tumor cells. NRAS-WT/BRAF-WT melanoma cells (FIG. 5a), NRAS-WT/BRAF-mut melanoma cells (FIG. 5b), NRAS mutant neuroblastoma cells (FIG. 5c), NRAS-WT/KRAS-mutant colon cancer cells (FIG. 5d), and NRAS-WT/KRAS-mutant lung cancer cells were treated with 1 μM 6-thio-dG for 5 days (FIG. 5e). At day 5, culture medium was replaced and cells treated with 1 μM 6-thio-dG plus 5 μM Gam for two more days. Cells were stained with Annexin V and PI and percent cell death was determined by FACS. Data represent average of three independent experiments +/−SEM; p values were calculated using un-paired Student's t-test; *p<0.05; **p<0.001.
(§3) Cells were seeded in 96-well plates and treated with drugs. After 6 days, cell viability was assessed following 6h incubation with […] Alamar Blue (ThermoFisherScientific, Philadelphia, Pa.) by measuring fluorescence using an EnVision Xcite Multilabel plate reader (Perkin Elmer, Waltham, Mass.). Cell death was determined by flow cytometry using PSVue-643 (Molecular Targeting Technologies) or Annexin V (640919, Biolegend, San Diego, Calif.) and Propidium Iodide (Sigma) staining. Samples were analyzed using a BD LSRII flow cytometer (BD Biosciences, San Jose, Calif.).

[3] = system: KRAS mutant A549 cells; assay: Cell death by Annexin V/PI flow cytometry; type: cell-based; settings: 1 μM 6-thio-dG, 5 μM Gam
Description: as §2, §3

[4] = system: NRAS mutant SKNAS neuroblastoma cells; assay: Cell death by Annexin V/PI flow cytometry; type: cell-based; settings: 1 μM 6-thio-dG, 5 μM Gam, single agents or in combination
Description: as §2, §3

[5] = system: non-transformed primary human melanocytes; assay: Cell viability, Alamar Blue assay; type: cell-based; settings: telomerase negative cells, 7 days
Description: as §1, with “As presented in FIG. 2h, mice bearing established WM3000 or M93-047 NRAS^mut tumors were treated with vehicle control or 6-thio-dG (2.5 mg/kg i.p; q.d).” left out
as §3

[6] = system: non-transformed primary human fibroblasts; assay: Cell viability, Alamar Blue assay; type: cell-based; settings: telomerase negative cells, 7 days
Description: as §1, with “As presented in FIG. 2h, mice bearing established WM3000 or M93-047 NRAS^mut tumors were treated with vehicle control or 6-thio-dG (2.5 mg/kg i.p; q.d).” left out
as §3

[7] = system: NRAS mutant tumors (WM3000, M93-047); assay: NRAS mutant melanoma xenograft tumors in mice; type: in vivo; settings: for tumor growth: 6-Thio-dG 2.5 mg/kg i.p. q.d., single agent
Description: as §1
FIGS. 6a to 6e provide results showing that combining 6-thio-dG and Gamitrinib inhibits the growth of 3D melanoma spheroids and NRAS-mutant xenograft tumors. Collagen-embedded melanoma spheroids were treated with DMSO, 6-thio-dG (5 μM) and Gam (5 μM) as in FIGS. 4a to 4e. On day 7, spheroids were stained with Calcein AM (live cells; green) and EtBr (dead cells; red) and imaged using an inverted microscope (4X; scale bar=250 μm). […] P values were calculated using unpaired Student's t-test. *p<0.05, ** p<0.01, ***p<0.005, when comparing vehicle control vs. combination treatment groups. […] Kaplan Meier survival curves of mice treated for 14 days. p-values were calculated by Mantel-Cox log-rank test; *p<0.05, **p<0.01, ***p<0.005. Animal weight (grams) before treatment (Start of TX) and at the end of the study (End of TX) was assessed, recorded for every mouse enrolled in the study and plotted in FIG. 6e. […] Statistical significance was assessed by unpaired Student's t-test.
All animal experiments were performed in accordance with institutional guidelines. […] Tumor growth was measured twice weekly with digital calipers. […]

[8] = system: NRAS mutant melanoma cells; assay: Cell viability, Alamar Blue assay; type: cell-based, Human
Description: as §1, with “As presented in FIG. 2h, mice bearing established WM3000 or M93-047 NRAS^mut tumors were treated with vehicle control or 6-thio-dG (2.5 mg/kg i.p; q.d).” left out
as §3

Nc1nc2c(ncn2[C@H]2C[C@H](O)[C@@H](CO)O2)c(=S)[nH]1 [6-thio-dG, 6-thio-2′-deoxyguanosine]
γH2AX [1]: increased levels
cell death [2]: did not induce substantial death
cell death [3]: did not induce substantial death
cell death [4]: triggered significant death
cell viability [5]: did not significantly affect
cell viability [6]: did not significantly affect
tumor growth [7]: slowed, but did not completely abrogated tumor growth
tumor growth ([7]; listed as 6-Thio-dG): slowed the growth of tumors
reduction in tumor volume ([7]; 6-Thio-dG 2.5 mg/kg, after 14 days of treatment): approximately 50%
cell viability ([8]; 6-thio-dG for 7 days, relative to DMSO): impaired the viability
cell viability ([8]; cells driven by secondary mutations in NRAS from patients with acquired resistance to BRAF and MEK inhibitors, 7 days): impaired the viability
